Tests used:
Plasmodium falciparum [1] = assay: Antimalarial activity against drug-sensitive Plasmodium falciparum TM4/8.2 after 48 hrs by SYBR Green1 dye based fluorescence assay; assay type: functional, organism-based; conditions: TM4/8.2, 48 h
Plasmodium falciparum [2] = assay: Antimalarial activity against drug-resistant Plasmodium falciparum K1CB1 after 48 hrs by SYBR Green1 dye based fluorescence assay; assay type: functional, organism-based; conditions: K1CB1, 48 h
KB = assay: Cytotoxicity against human KB cells; assay type: functional, cell-based
Vero = assay: Cytotoxicity against African green monkey Vero cells; assay type: cell-based; conditions: Chlorocebus sabaeus

Measured: IC50

CC1(C)O[C@H]2C=C[C@@H](OC(=O)c3ccccc3)[C@H](O)[C@@]2(COC(=O)c2ccccc2)O1
> 50 µM: all assays above

O=C(OC[C@]1(O)[C@H](OC(=O)c2ccccc2)C=C[C@@H](OC(=O)c2ccccc2)[C@@H]1O)c1ccccc1
> 50 µM: all assays above

O=C(OCC1=C[C@H]2Oc3ccccc3C[C@H]2[C@@H](OC(=O)c2ccccc2)[C@@H]1O)c1ccccc1
> 50 µM: all assays above

CC(=O)O[C@H]1C=CC=C(COC(=O)c2ccccc2)[C@@H]1O
> 50 µM: all assays above

O=C(OC[C@]1(O)[C@H](Cl)C=C[C@@H](OC(=O)c2ccccc2)[C@@H]1O)c1ccccc1
> 50 µM: all assays above

O=C(OCC1=C[C@@H](O)[C@H](O)[C@H](OC(=O)c2ccccc2)[C@H]1O)c1ccccc1
> 50 µM: all assays above

O=C(OC[C@]1(O)[C@H](Cl)C=C[C@H](O)[C@H]1O)c1ccccc1
> 50 µM: all assays above

CC(=O)O[C@H]1C=C[C@@H](Cl)[C@@](O)(COC(=O)c2ccccc2)[C@@H]1O
> 50 µM: all assays above

O=C(OC[C@]12O[C@H]1C=C[C@@H](OC(=O)c1ccccc1)[C@H]2O)c1ccccc1
> 50 µM: all assays above

O=C(OC[C@]1(O)[C@@H](O)C=C[C@@H](O)[C@@H]1O)c1ccccc1
> 50 µM: all assays above

CC(=O)O[C@H]1C=CC=C[C@@]1(O)COC(=O)c1ccccc1
> 50 µM: all assays above

CC(=O)O[C@H]1C=C[C@@H](O)[C@H](O)[C@@]1(O)COC(=O)c1ccccc1
> 50 µM: all assays above

CC(=O)O[C@@H]1C=C[C@@H](OC(=O)c2ccccc2)[C@H](O)[C@]1(O)COC(=O)c1ccccc1
> 50 µM: all assays above

O=C(OC/C=C/C=C/[C@H](O)COC(=O)c1ccccc1)c1ccccc1
> 50 µM: all assays above

COc1ccc2c(c1)C[C@H]1[C@@H](OC(=O)c3ccccc3)[C@H](O)C(COC(=O)c3ccccc3)=C[C@H]1O2
> 50 µM: all assays above
